Measurements reported in publication PMC4631615 (Bipolar disorders, 2015).
“And” between values parts separate entries of the source, which are not always exact repeats. Equal entries are not always repeated. Marks after values point to notes of the source that are not given here.

Assays:
NMRI mice = conditions: injected on GD 8 with 3 mmol/kg; cited from earlier work
SWV mouse fetuses [1] = tested on: SWV mouse fetuses
SWV mouse fetuses [2] = test: Skeletal examination of fetuses; format: in vivo
mouse = conditions: source not given; cited from earlier work
pregnant SWV mice [3] = test: Maternal body weight and weight gain, teratogenicity study; format: in vivo, mouse; conditions: mean ± SD
pregnant SWV mice [4] = test: Pregnancy outcomes; format: in vivo, mouse; conditions: for Fetus weight: mean ± SD
[5] = 1/4.36 of LD50 (RIS 14.5, VCD 229.2 mg/kg) p.o. GD 4–17
[6] = 1/6.54 of LD50 (RIS 9.6, OLA 32.1, VCD 152.8 mg/kg) p.o. GD 4–17

SMILES: CCCC(CCC)C(=O)O [VPA, valproic acid]
- Exposed fetuses with exencephaly (NMRI mice): 52%
- Resorption rate (NMRI mice): 53%

SMILES: Cc1nc2n(c(=O)c1CCN1CCC(c3noc4cc(F)ccc34)CC1)CCCC2 [RIS, 3-(2-(4-(6-fluoro-1,2-benzisoxazol-3-yl)piperidino)ethyl)-6,7,8,9-tetrahydro-2-methyl-4H-pyrido(1,2-a)pyrimidin-4-one]
- Overall teratogenicity under the experimental conditions (SWV mouse fetuses [1]; SWV mice, p.o. GD 4–17, doses as fractions of LD50): maternal-, embryo-, and fetotoxic
- Cleft palate, affected fetuses (SWV mouse fetuses [1]; female, SWV, mouse, in vivo): 8
- Dilated brain ventricles, affected litters (SWV mouse fetuses [1]; female, SWV, mouse, in vivo): 2/2
- Exencephaly, affected litters (SWV mouse fetuses [1]; female, SWV, mouse, in vivo): 1/1
- Fetuses with external abnormalities, % (SWV mouse fetuses [1]; female, SWV, mouse, in vivo): 0.4%
- Malposition stomach, affected fetuses (SWV mouse fetuses [1]; female, SWV, mouse, in vivo): 0
- Right aortic arch, affected fetuses (SWV mouse fetuses [1]; female, SWV, mouse, in vivo): 0
- All vertebra: incomplete ossification, affected fetuses (SWV mouse fetuses [2]; [5]): 0
- Cervical vertebra: ossified fusion of centrums, affected fetuses (SWV mouse fetuses [2]; [5]): 0
- Fetuses with skeletal abnormalities, % (SWV mouse fetuses [2]; [5]): 20.1%
- Fibula: bent, affected fetuses (SWV mouse fetuses [2]; [5]): 0
- Metacarpal: absent ossification, affected fetuses (SWV mouse fetuses [2]; [5]): 6
- Metacarpal: absent ossification, affected litters (SWV mouse fetuses [2]; [5]): 1
- Metacarpal: incomplete ossification, affected fetuses (SWV mouse fetuses [2]; [5]): 0
- Metatarsal: absent ossification, affected fetuses (SWV mouse fetuses [2]; [5]): 6
- Metatarsal: absent ossification, affected litters (SWV mouse fetuses [2]; [5]): 1
- Metatarsal: incomplete ossification, affected fetuses (SWV mouse fetuses [2]; [5]): 0
- Ribs: absent 13th, affected fetuses (SWV mouse fetuses [2]; [5]): 0
- Ribs: branched, affected fetuses (SWV mouse fetuses [2]; [5]): 0
- Skull: incomplete ossification, affected fetuses (SWV mouse fetuses [2]; [5]): 6
- Skull: incomplete ossification, affected litters (SWV mouse fetuses [2]; [5]): 1
- Skull: interparietal incomplete ossification, affected fetuses (SWV mouse fetuses [2]; [5]): 0
- Skull: parietal incomplete ossification, affected fetuses (SWV mouse fetuses [2]; [5]): 1/1
- Skull: parietal incomplete ossification, affected litters (SWV mouse fetuses [2]; [5]): 1/1
- Skull: supraoccipital incomplete ossification, affected fetuses (SWV mouse fetuses [2]; [5]): 0
- Sternebra: absent ossification, affected fetuses (SWV mouse fetuses [2]; [5]): 7
- Sternebra: absent ossification, affected litters (SWV mouse fetuses [2]; [5]): 2
- Sternebra: incomplete ossification, affected fetuses (SWV mouse fetuses [2]; [5]): 13
- Sternebra: incomplete ossification, affected litters (SWV mouse fetuses [2]; [5]): 9
- Sternebra: misaligned, affected fetuses (SWV mouse fetuses [2]; [5]): 0
- Sternebra: misshapen, affected fetuses (SWV mouse fetuses [2]; [5]): 1/1
- Sternebra: misshapen, affected litters (SWV mouse fetuses [2]; [5]): 1/1
- Whole skeletal system: incomplete ossification, affected fetuses (SWV mouse fetuses [2]; [5]): 2
- Whole skeletal system: incomplete ossification, affected litters (SWV mouse fetuses [2]; [5]): 1
- All vertebra: incomplete ossification, affected fetuses (SWV mouse fetuses [2]; [6]): 0
- Cervical vertebra: ossified fusion of centrums, affected fetuses (SWV mouse fetuses [2]; [6]): 0
- Fetuses with skeletal abnormalities, % (SWV mouse fetuses [2]; [6]): 10.8%
- Fibula: bent, affected fetuses (SWV mouse fetuses [2]; [6]): 0
- Metacarpal: absent ossification, affected fetuses (SWV mouse fetuses [2]; [6]): 0
- Metacarpal: incomplete ossification, affected fetuses (SWV mouse fetuses [2]; [6]): 1/1
- Metacarpal: incomplete ossification, affected litters (SWV mouse fetuses [2]; [6]): 1/1
- Metatarsal: absent ossification, affected fetuses (SWV mouse fetuses [2]; [6]): 0
- Metatarsal: incomplete ossification, affected fetuses (SWV mouse fetuses [2]; [6]): 1/1
- Metatarsal: incomplete ossification, affected litters (SWV mouse fetuses [2]; [6]): 1/1
- Ribs: absent 13th, affected fetuses (SWV mouse fetuses [2]; [6]): 0
- Ribs: branched, affected fetuses (SWV mouse fetuses [2]; [6]): 0
- Skull: incomplete ossification, affected fetuses (SWV mouse fetuses [2]; [6]): 3
- Skull: incomplete ossification, affected litters (SWV mouse fetuses [2]; [6]): 2
- Skull: interparietal incomplete ossification, affected fetuses (SWV mouse fetuses [2]; [6]): 0
- Skull: parietal incomplete ossification, affected fetuses (SWV mouse fetuses [2]; [6]): 0
- Skull: supraoccipital incomplete ossification, affected fetuses (SWV mouse fetuses [2]; [6]): 0
- Sternebra: absent ossification, affected fetuses (SWV mouse fetuses [2]; [6]): 0
- Sternebra: incomplete ossification, affected fetuses (SWV mouse fetuses [2]; [6]): 5
- Sternebra: incomplete ossification, affected litters (SWV mouse fetuses [2]; [6]): 4
- Sternebra: misaligned, affected fetuses (SWV mouse fetuses [2]; [6]): 0
- Sternebra: misshapen, affected fetuses (SWV mouse fetuses [2]; [6]): 3/3
- Sternebra: misshapen, affected litters (SWV mouse fetuses [2]; [6]): 3/3
- Whole skeletal system: incomplete ossification, affected fetuses (SWV mouse fetuses [2]; [6]): 1/1
- Whole skeletal system: incomplete ossification, affected litters (SWV mouse fetuses [2]; [6]): 1/1
- LD50 mouse, oral (mouse): 63 mg/kg
- Dams net weight gain (pregnant SWV mice [3]; [5]): 7.4 ± 2.3 ^a grams
- Dams weight GD 18 (pregnant SWV mice [3]; [5]): 47.1 ± 3.2 grams
- Dams weight gain (pregnant SWV mice [3]; [5]): 18.1 grams and 18.1 ± 2.5 ^a grams
- Dams net weight gain (pregnant SWV mice [3]; [6]): 7.5 ± 2.0 grams
- Dams weight GD 18 (pregnant SWV mice [3]; [6]): 46.9 ± 4.8 grams
- Dams weight gain (pregnant SWV mice [3]; [6]): 19.4 ± 4.2 grams
- Resorption rate (pregnant SWV mice [4]; 1/4.36 of LD50 (RIS 14.5 mg/kg) p.o. GD 4–17): 12.4%
- Fetus weight (pregnant SWV mice [4]; [5]): 0.83 ± 0.05 ^a g
- Fetus weight (pregnant SWV mice [4]; [6]): 0.89 ± 0.06 g
